Laboratory results published in patent publication US10155259B2 (Merck Sharp & Dohme B.V., priority 2011, dated 2018).

The molecules below were run against T1, human FSH receptor (Homo sapiens, UniProt P23945) (assay: Antagonistic activity of compounds at the human FSH receptor expressed in CHO cells (CRE-luciferase reporter)). Conditions: CHO cells stably transfected with human FSH receptor and CRE/luciferase reporter; together with 49 μM recFSH; 4 hours incubation; 1% DMSO; read-out: IC50 (concentration of test compound causing half-maximal inhibition of the maximally attainable inhibition of the luciferase stimulation).
T1 construct: expressed in transfected cells; host or cells: CHO cells, stably transfected; cotransfected with CRE-luciferase reporter
T1 sequence (P23945 18-695): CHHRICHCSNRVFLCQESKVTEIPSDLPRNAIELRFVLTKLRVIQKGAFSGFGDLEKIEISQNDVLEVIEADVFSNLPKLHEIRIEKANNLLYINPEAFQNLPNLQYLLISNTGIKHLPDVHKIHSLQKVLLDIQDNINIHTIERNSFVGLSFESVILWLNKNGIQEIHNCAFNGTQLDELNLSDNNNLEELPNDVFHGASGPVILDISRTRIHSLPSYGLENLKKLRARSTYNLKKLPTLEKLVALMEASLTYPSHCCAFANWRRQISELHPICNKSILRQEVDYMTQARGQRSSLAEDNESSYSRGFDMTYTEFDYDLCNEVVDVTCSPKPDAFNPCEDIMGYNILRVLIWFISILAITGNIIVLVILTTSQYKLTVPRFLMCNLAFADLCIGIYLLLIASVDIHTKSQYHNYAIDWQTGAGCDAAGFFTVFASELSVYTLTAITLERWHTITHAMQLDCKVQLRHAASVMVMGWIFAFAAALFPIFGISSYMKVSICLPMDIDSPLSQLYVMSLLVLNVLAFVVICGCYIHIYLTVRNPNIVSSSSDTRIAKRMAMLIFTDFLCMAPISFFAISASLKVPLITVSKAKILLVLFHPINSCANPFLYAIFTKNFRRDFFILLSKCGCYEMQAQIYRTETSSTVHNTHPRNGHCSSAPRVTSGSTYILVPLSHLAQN
Assay type: cell-based
Method: Antagonistic Activity of Compounds at the Human FSH Receptor Expressed in CHO Cells
Antagonistic activity of the compounds at the human FSH receptor was determined in Chinese Hamster Ovary (CHO) cells stably transfected with the human FSH receptor and cotransfected with a cAMP responsive element (CRE)/promotor directing the expression of a firefly luciferase reporter gene. Binding of the compounds to the Gs protein-coupled FSH receptor will result in an increase of cAMP, which in turn will induce an increased transactivation of the luciferase reporter. The cells (7,500 cells/well of a 384 well plate) were incubated in Dulbecco' minimal essential F12 modified medium (Invitrogen), supplemented with 1 μg/ml bovine insulin, 5 μg/ml human apo-transferrin, 100 U/ml penicillin G and 100 μg/ml streptomycin with the test compounds (concentration between 0.316 nM and 10.0 μM) in duplicate together with […] (which, at this concentration in the absence of test compound, induces 80% of the maximal luciferase stimulation) in a humidified atmosphere (95%) at 5-7% CO2 and 37° C. The final concentration of DMSO was 1%. After 4 hours of incubation, plates were allowed to adjust to room temperature for 1 hour. Then, SteadyLite (PerkinElmer) solution was added to the wells and cells were allowed to lyse for at least 1 hour at room temperature. Subsequently, luciferase activity was measured in a luminescence counter. The signal is expressed as counts per second (cps). The IC50 (concentration of test compound causing half-maximal (50%) inhibition of the maximally attainable inhibition of the luciferase stimulation by the compound) and efficacy of the compounds were determined using the software program MathIQ (version 2.3, ID Business Solutions Limited).

IC50 [µM] | SMILES
0.1 to 1 | COc1cc2c(cc1OC(C)C)-c1cc(C(=O)N[C@@H](CO)Cc3c[nH]c4ccccc34)c(-c3ccc(N)nc3)n1CC2 [Example 15, (R)-3-(6-aminopyridin-3-yl)-N-(1-hydroxy-3-(1H-indol-3-yl)propan-2-yl)-9-isopropoxy-8-methoxy-5,6-dihydropyrrolo[2,1-a]isoquinoline-2-carboxamide]
< 0.1 | CCCC(=O)c1c(C(=O)N[C@@H](CO)Cc2c[nH]c3ccccc23)cc2n1CCc1cc(OC)c(OC(C)C)cc1-2 [Example 26, (R)-3-butyryl-N-(1-hydroxy-3-(1H-indol-3-yl)propan-2-yl)-9-isopropoxy-8-methoxy-5,6-dihydropyrrolo[2,1-a]isoquinoline-2-carboxamide]
0.1 to 1 | COc1cc2c(cc1OC)-c1nc(C(=O)N[C@@H](CO)Cc3c[nH]c4ccccc34)c(-c3cccc(F)c3)n1CC2 [Example 66, (R)-3-(3-fluorophenyl)-N-(1-hydroxy-3-(1H-indol-3-yl)propan-2-yl)-8,9-dimethoxy-5,6-dihydroimidazo[2,1-a]isoquinoline-2-carboxamide]
< 0.1 | COc1cc2c(cc1OCCO)-c1cc(C(=O)N[C@@H](CO)Cc3c[nH]c4ccccc34)c(-c3cccc(F)c3)n1CC2 [Example 38, (R)-3-(3-fluorophenyl)-N-(1-hydroxy-3-(1H-indol-3-yl)propan-2-yl)-9-(2-hydroxyethoxy)-8-methoxy-5,6-dihydropyrrolo[2,1-a]isoquinoline-2-carboxamide]
< 0.1 | COc1cc2c(cc1C=C(C)C)-c1cc(C(=O)N[C@@H](CO)Cc3c[nH]c4ccccc34)c(-c3cccc(F)c3)n1CC2 [Example 45, (R)-3-(3-fluorophenyl)-N-(1-hydroxy-3-(1H-indol-3-yl)propan-2-yl)-8-methoxy-9-(2-methylprop-1-enyl)-5,6-dihydropyrrolo[2,1-a]isoquinoline-2-carboxamide]
0.1 to 1 | CC(C)Oc1cc2c(cc1OC(C)C)-c1cc(C(=O)N[C@@H](CO)Cc3c[nH]c4ccccc34)c(-c3ccccc3)n1CC2 [Example 30, (R)—N-(1-hydroxy-3-(1H-indol-3-yl)propan-2-yl)-8,9-diisopropoxy-3-phenyl-5,6-dihydropyrrolo[2,1-a]isoquinoline-2-carboxamide]
< 0.1 | COc1cc2c(c(OC)c1OC)CCn1c-2cc(C(=O)N[C@@H](CO)Cc2c[nH]c3ccccc23)c1-c1cccc(F)c1 [Example 62, (R)-3-(3-fluorophenyl)-N-(1-hydroxy-3-(1H-indol-3-yl)propan-2-yl)-7,8,9-trimethoxy-5,6-dihydropyrrolo[2,1-a]isoquinoline-2-carboxamide]
< 0.1 | COc1cc2c(cc1-c1cccnc1)-c1cc(C(=O)N[C@@H](CO)Cc3c[nH]c4ccccc34)c(-c3cccc(F)c3)n1CC2 [Example 42, (R)-3-(3-fluorophenyl)-N-(1-hydroxy-3-(1H-indol-3-yl)propan-2-yl)-8-methoxy-9-(pyridin-3-yl)-5,6-dihydropyrrolo[2,1-a]isoquinoline-2-carboxamide]
< 0.1 | COCCOc1cc2c(cc1OC)CCn1c-2cc(C(=O)N[C@@H](CO)Cc2c[nH]c3ccccc23)c1-c1cccc(F)c1 [Example 33, (R)-3-(3-fluorophenyl)-N-(1-hydroxy-3-(1H-indol-3-yl)propan-2-yl)-8-methoxy-9-(2-methoxyethoxy)-5,6-dihydropyrrolo[2,1-a]isoquinoline-2-carboxamide]
< 0.1 | COc1cc2c(c(OC)c1OC)-c1cc(C(=O)N[C@@H](CO)Cc3c[nH]c4ccccc34)c(-c3ccccc3)n1CC2 [Example 63, (R)—N-(1-hydroxy-3-(1H-indol-3-yl)propan-2-yl)-8,9,10-trimethoxy-3-phenyl-5,6-dihydropyrrolo[2,1-a]isoquinoline-2-carboxamide]
< 0.1 | COc1cc2c(cc1-c1cnn(C)c1)-c1cc(C(=O)N[C@@H](CO)Cc3c[nH]c4ccccc34)c(-c3cccs3)n1CC2 [Example 55, (R)—N-(1-hydroxy-3-(1H-indol-3-yl)propan-2-yl)-8-methoxy-9-(1-methyl-1H-pyrazol-4-yl)-3-(thiophen-2-yl)-5,6-dihydropyrrolo[2,1-a]isoquinoline-2-carboxamide]
< 0.1 | COc1cc2c(c(OC)c1OC)CCn1c-2cc(C(=O)N[C@@H](CO)Cc2c[nH]c3ccccc23)c1-c1cccs1 [Example 61, (R)—N-(1-hydroxy-3-(1H-indol-3-yl)propan-2-yl)-7,8,9-trimethoxy-3-(thiophen-2-yl)-5,6-dihydropyrrolo[2,1-a]isoquinoline-2-carboxamide]
< 0.1 | COc1cc2c(cc1-c1cn[nH]c1)-c1cc(C(=O)N[C@@H](CO)Cc3c[nH]c4ccccc34)c(-c3cccs3)n1CC2 [Example 59, (R)—N-(1-hydroxy-3-(1H-indol-3-yl)propan-2-yl)-8-methoxy-9-(1H-pyrazol-4-yl)-3-(thiophen-2-yl)-5,6-dihydropyrrolo[2,1-a]isoquinoline-2-carboxamide]
< 0.1 | COc1ccc(-c2cc3c(cc2OC)CCn2c-3cc(C(=O)N[C@@H](CO)Cc3c[nH]c4ccccc34)c2-c2cccs2)cn1 [Example 58, (R)—N-(1-hydroxy-3-(1H-indol-3-yl)propan-2-yl)-8-methoxy-9-(6-methoxypyridin-3-yl)-3-(thiophen-2-yl)-5,6-dihydropyrrolo[2,1-a]isoquinoline-2-carboxamide]
0.1 to 1 | COc1cc2c(cc1OC)-c1nc(C(=O)N[C@@H](CO)Cc3c[nH]c4ccccc34)c(-c3ccccc3OC)n1CC2 [Example 68, N—((R)-1-hydroxy-3-(1H-indol-3-yl)propan-2-yl)-8,9-dimethoxy-3-(2-methoxyphenyl)-5,6-dihydroimidazo[2,1-a]isoquinoline-2-carboxamide]
< 0.1 | COc1cc2c(cc1OC(C)C)-c1cc(C(=O)N[C@@H](CO)Cc3c[nH]c4ccccc34)c(-c3ccc(F)cc3)n1CC2 [Example 13, (R)-3-(4-fluorophenyl)-N-(1-hydroxy-3-(1H-indol-3-yl)propan-2-yl)-9-isopropoxy-8-methoxy-5,6-dihydropyrrolo[2,1-a]isoquinoline-2-carboxamide]
0.1 to 1 | C=CCOc1cc2c(cc1OC)CCn1c-2cc(C(=O)N[C@@H](CO)Cc2c[nH]c3ccccc23)c1-c1cccc(F)c1 [Example 32, (R)-9-(allyloxy)-3-(3-fluorophenyl)-N-(1-hydroxy-3-(1H-indol-3-yl)propan-2-yl)-8-methoxy-5,6-dihydropyrrolo[2,1-a]isoquinoline-2-carboxamide]
< 0.1 | COc1cc2c(cc1OC(C)C)-c1cc(C(=O)N[C@@H](CO)Cc3c[nH]c4ccccc34)c(C(=O)C(C)(C)C)n1CC2 [Example 25, (R)—N-(1-hydroxy-3-(1H-indol-3-yl)propan-2-yl)-9-isopropoxy-8-methoxy-3-pivaloyl-5,6-dihydropyrrolo[2,1-a]isoquinoline-2-carboxamide]
< 0.1 | COc1cc2c(cc1OC(C)C)-c1cc(C(=O)N[C@@H](CO)Cc3c[nH]c4ccccc34)c(C(=O)C3CC3)n1CC2 [Example 27, (R)-3-(cyclopropanecarbonyl)-N-(1-hydroxy-3-(1H-indol-3-yl)propan-2-yl)-9-isopropoxy-8-methoxy-5,6-dihydropyrrolo[2,1-a]isoquinoline-2-carboxamide]
0.1 to 1 | COc1cc2c(cc1C(=O)N1CCOCC1)-c1cc(C(=O)N[C@@H](CO)Cc3c[nH]c4ccccc34)c(-c3cccc(F)c3)n1CC2 [Example 47, (R)-3-(3-fluorophenyl)-N-(1-hydroxy-3-(1H-indol-3-yl)propan-2-yl)-8-methoxy-9-(morpholine-4-carbonyl)-5,6-dihydropyrrolo[2,1-a]isoquinoline-2-carboxamide]

SMILES | IC50 [µM]
COc1cc2c(cc1OC)-c1cc(C(=O)N[C@@H](CO)Cc3c[nH]c4ccccc34)c(-c3ccccn3)n1CC2 [Example 11] | < 0.1
